These molecules were tested against MAPK14 (human) (UniProt Q16539) (assay: Inhibition of MAPK14 Kinase Activity).
Chain of MAPK14 (human) (Q16539 whole entry, looked up): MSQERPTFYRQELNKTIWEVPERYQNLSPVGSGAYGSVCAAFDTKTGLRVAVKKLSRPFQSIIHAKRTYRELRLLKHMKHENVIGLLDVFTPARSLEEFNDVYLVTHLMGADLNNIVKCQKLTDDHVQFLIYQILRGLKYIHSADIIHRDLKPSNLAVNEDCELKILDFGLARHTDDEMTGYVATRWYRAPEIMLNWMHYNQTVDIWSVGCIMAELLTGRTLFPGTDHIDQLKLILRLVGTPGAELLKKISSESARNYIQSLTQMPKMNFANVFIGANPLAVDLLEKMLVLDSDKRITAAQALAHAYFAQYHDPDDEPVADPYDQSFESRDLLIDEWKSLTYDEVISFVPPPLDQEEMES

IC50, ≤ 10 µM:
O=C1CCC(Cc2ccc(Cl)cc2Cl)CN1c1c(Cl)cncc1Cl (configuration not stated)
C[C@@H]1C[C@H](Cc2ccc(F)cc2F)CN(c2c(Cl)cc(NCCN(C)C)cc2Cl)C1=O
Nc1cnc(Cl)c(N2CC(Sc3ccc(F)cc3F)CCC2=O)c1Cl (configuration not stated)
CNc1cnc(Cl)c(N2CC(Oc3ccc(F)cc3F)CCC2=O)c1Cl (configuration not stated)
O=C1CCC(Cc2cc(Cl)cc(Cl)c2)CN1c1c(Cl)cncc1Cl (configuration not stated)
O=C1NCC(Cc2cc(F)cc(F)c2)CN1c1c(Cl)cccc1Cl (configuration not stated)
COc1ccccc1CC1CN(C)C(=O)N(c2c(Cl)cccc2Cl)C1 (configuration not stated)
O=C1CCC(Cc2ccc(F)cc2F)CN1C1CCCCC1 (configuration not stated)
CNc1ccc(Cl)c(N2CC(Sc3ccc(F)cc3F)CCC2=O)c1Cl (configuration not stated)
CNc1cc(Cl)c(N2CC(Cc3ccc(F)cc3F)CSC2=O)c(Cl)c1 (configuration not stated)
C[C@@H]1C[C@H](Cc2ccc(F)cc2F)CN(c2c(Cl)cc(N)cc2Cl)C1=O
COc1ccc(CC2CCC(=O)N(c3c(Cl)csc3Cl)C2)cc1 (configuration not stated)
O=C1CCC(Cc2cc(Cl)cc(Cl)c2)CN1c1c(Cl)ccnc1Cl (configuration not stated)
O=C1CCC(Cc2ccccc2Cl)CN1c1c(Cl)ccnc1Cl (configuration not stated)
CNc1ncc(Cl)c(N2CC(Oc3ccc(F)cc3F)CCC2=O)c1Cl (configuration not stated)
O=C1CCC(Cc2ccc(Cl)cc2Cl)CN1c1c(Cl)csc1Cl (configuration not stated)
Cc1ccccc1CC1CCC(=O)N(c2c(Cl)csc2Cl)C1 (configuration not stated)
O=C1CCC(Cc2ccccc2)CN1c1c(Cl)cc([N+](=O)[O-])cc1Cl (configuration not stated)
O=C1CCC(Cc2cccc3ccccc23)CN1C1C(Cl)CCCC1Cl (configuration not stated)
O=C1COC(Cc2cc(Cl)cc(Cl)c2)CN1c1c(Cl)cccc1Cl (configuration not stated)
O=C1CCC(Sc2ccc(F)cc2F)CN1c1c(Cl)cc(O)cc1Cl (configuration not stated)
Cc1ccc(CC2CCC(=O)N(c3c(Cl)csc3Cl)C2)c(C)c1 (configuration not stated)
CS(=O)(=O)NCCNc1cc(Cl)c(N2CC(Cc3ccc(F)cc3F)CCC2=O)c(Cl)c1 (configuration not stated)
O=C1NCC(Cc2cccc3ccccc23)CN1c1c(Cl)cccc1Cl (configuration not stated)
O=C(CNc1cc(Cl)c(N2CC(Cc3ccc(F)cc3F)CCC2=O)c(Cl)c1)NOCc1ccccc1 (configuration not stated)
CC(=O)NC1CC(Cl)C(N2CC(Oc3ccc(F)cc3F)CCC2=O)C(Cl)C1 (configuration not stated)
O=C1CCC(Cc2ccc3ccccc3c2)CN1C1C(Cl)CCCC1Cl (configuration not stated)
Nc1ccc(Cl)c(N2CC(Cc3ccc(F)cc3F)OCC2=O)c1Cl (configuration not stated)
O=C1CCC(Sc2cc(F)cc(F)c2)CN1c1c(Cl)cncc1Cl (configuration not stated)
O=C1CCC(Sc2ccc(F)cc2F)CN1c1c(Cl)cc(O)nc1Cl (configuration not stated)
O=C1COC(Cc2ccc(F)cc2F)CN1c1c(Cl)cc(O)cc1Cl (configuration not stated)
O=C(Cc1ccccc1)Nc1cc(Cl)c(N2CC(Cc3ccc(F)cc3F)COC2=O)c(Cl)c1 (configuration not stated)
O=C1CCC(Cc2ccccc2)CN1c1c(Cl)cncc1Cl (configuration not stated)
Cc1ccc(CC2CNC(=O)N(c3c(Cl)cccc3Cl)C2)c(C)c1 (configuration not stated)
O=C1CCC(Cc2ccc(F)cc2F)CN1c1c(Cl)ncc(O)c1Cl (configuration not stated)
COc1ccccc1CC1CCC(=O)N(c2c(Cl)cccc2Cl)C1 (configuration not stated)
O=C(Cc1ccccc1)Nc1cc(Cl)c(N2CC(Sc3ccc(F)cc3F)CCC2=O)c(Cl)n1 (configuration not stated)
Cc1cc(Br)cc(C)c1N1CC(Cc2ccc(F)cc2F)CCC1=O (configuration not stated)
O=C1OCC(Cc2ccc3ccccc3c2)CN1c1c(Cl)cccc1Cl (configuration not stated)
O=C1OCC(Cc2ccc(Cl)cc2)CN1c1c(Cl)cccc1Cl (configuration not stated)
O=C1OCC(Cc2ccccc2)CN1c1c(Cl)cccc1Cl (configuration not stated)
CC(C)(C)OC(=O)N(CC(=O)O)c1cc(Cl)c(N2CC(Cc3ccc(F)cc3F)CCC2=O)c(Cl)c1 (configuration not stated)
Cc1ccc(CC2CN(c3c(Cl)cccc3Cl)C(=O)CO2)cc1 (configuration not stated)
O=C1CCC(Cc2ccccc2F)CN1C1C(Cl)CCCC1Cl (configuration not stated)
Cn1nc(C(C)(C)C)cc1NC(=O)OCc1ccccc1CC1CCC(=O)N(c2c(Cl)cccc2Cl)C1 (configuration not stated)
O=C(Cc1ccccc1)Nc1cc(Cl)c(N2CC(Cc3ccc(F)cc3F)CCC2=O)c(Cl)c1 (configuration not stated)
O=C1CCC(Cc2ccc(F)cc2F)CN1c1c(Cl)cc(NCCN2CCOCC2)cc1Cl (configuration not stated)
Cc1cc(C#CCCO)cc(C)c1N1CC(Cc2ccc(F)cc2F)CCC1=O (configuration not stated)
COc1ccc(OC2CCC(=O)N(C3C(Cl)CCCC3Cl)C2)cc1 (configuration not stated)
O=C1COC(Cc2cc(F)cc(F)c2)CN1c1c(Cl)cccc1Cl (configuration not stated)
O=C1CCC(Oc2ccc(Cl)cc2Cl)CN1C1C(Cl)CCCC1Cl (configuration not stated)
N[C@@H](Cc1ccc(O)cc1)C(=O)Nc1cc(Cl)c(N2CC(Cc3ccc(F)cc3F)CCC2=O)c(Cl)c1 (some centres not stated)
O=C1COC(Cc2ccc(Cl)cc2Cl)CN1c1c(Cl)cccc1Cl (configuration not stated)
Cc1ccc(CC2CCC(=O)N(C3C(Cl)CCCC3Cl)C2)c(C)c1 (configuration not stated)
O=C1SCC(Cc2ccccc2)CN1c1c(Cl)cccc1Cl (configuration not stated)
Nc1cc(Cl)c(N2CC(Cc3ccc(F)cc3F)CSC2=O)c(Cl)c1 (configuration not stated)
O=C1CCC(Cc2ccc(F)cc2F)CN1c1c(Cl)cc(C#CCCO)cc1Cl (configuration not stated)
O=C1CCC(Oc2ccc(F)cc2)CN1c1c(Cl)cncc1Cl (configuration not stated)
COc1ccc(CC2COC(=O)N(c3c(Cl)cccc3Cl)C2)cc1 (configuration not stated)
Cc1ccc(CC2CCC(=O)N(c3c(Cl)ccnc3Cl)C2)cc1 (configuration not stated)
CNc1cnc(Cl)c(N2CC(Sc3ccc(F)cc3F)CCC2=O)c1Cl (configuration not stated)
Cc1ccc(OC2CCC(=O)N(C3C(Cl)CCCC3Cl)C2)c(C)c1 (configuration not stated)
O=C(Cc1ccccc1)Nc1cnc(Cl)c(N2CC(Cc3ccc(F)cc3F)CCC2=O)c1Cl (configuration not stated)
CN1CC(Cc2cccc3ccccc23)CN(c2c(Cl)cccc2Cl)C1=O (configuration not stated)
Cc1cc2c(cc1NC(=O)NCc1ccccc1CC1CCC(=O)N(c3c(Cl)cccc3Cl)C1)C(C)(C)CCC2 (configuration not stated)
CN1CCN(C(=O)CNc2cc(Cl)c(N3CC(Cc4ccc(F)cc4F)CCC3=O)c(Cl)c2)CC1 (configuration not stated)
O=C1CCC(C(=NO)c2ccc(F)cc2F)CN1c1c(Cl)cccc1Cl (configuration not stated)
COc1ccc(CC2CN(c3c(Cl)cccc3Cl)C(=O)CS2)cc1 (configuration not stated)
O=C(Cc1ccccc1)Nc1cnc(Cl)c(N2CC(Oc3ccc(F)cc3F)CCC2=O)c1Cl (configuration not stated)
CNC1CC(Cl)C(N2CC(Cc3ccc(F)cc3F)CCC2=O)C(Cl)C1 (configuration not stated)
O=C(Cc1ccccc1)Nc1ncc(Cl)c(N2CC(Sc3ccc(F)cc3F)CCC2=O)c1Cl (configuration not stated)
Cc1ccccc1OC1CCC(=O)N(c2c(Cl)cccc2Cl)C1 (configuration not stated)
O=C1CCC(Cc2ccc(F)cc2)CN1C1C(Cl)CCCC1Cl (configuration not stated)
Cc1ccc(CC2CCC(=O)N(c3c(Cl)ccnc3Cl)C2)c(C)c1 (configuration not stated)
O=C1CCC(Cc2ccc(F)cc2)CN1c1c(Cl)cncc1Cl (configuration not stated)
O=C1CCC(Cc2ccc(F)cc2F)CN1c1cc(Cl)cc(Cl)c1 (configuration not stated)
O=C1CCC(Cc2ccccc2)CN1c1ccccc1Cl (configuration not stated)
O=C1CCC(Oc2cc(F)cc(F)c2)CN1c1c(Cl)cccc1Cl (configuration not stated)
Cc1ccccc1SC1CCC(=O)N(c2c(Cl)csc2Cl)C1 (configuration not stated)
O=C1CSC(Cc2ccc(F)cc2F)CN1c1c(Cl)cc(O)cc1Cl (configuration not stated)
CNC(=O)CCc1cc(Cl)c(N2CC(Cc3ccc(F)cc3F)CCC2=O)c(Cl)c1 (configuration not stated)
O=C1CCC(Sc2ccc(F)cc2F)CN1C1C(Cl)CCC(CO)C1Cl (configuration not stated)
O=C(NCc1ccccc1CC1CCC(=O)N(c2c(Cl)cccc2Cl)C1)NC1CCCCC1 (configuration not stated)
O=C1COC(Cc2ccc(F)cc2F)CN1c1c(Cl)cccc1Cl (configuration not stated)
O=C1SCC(Cc2cccc3ccccc23)CN1c1c(Cl)cccc1Cl (configuration not stated)
COC(=O)/C=C/c1cc(Cl)c(N2CC(Cc3ccc(F)cc3F)CCC2=O)c(Cl)c1 (configuration not stated)
CC(=O)Nc1ccc(Cl)c(N2CC(Oc3ccc(F)cc3F)CCC2=O)c1Cl (configuration not stated)
CC(=O)Nc1ccc(Cl)c(N2CC(Cc3ccc(F)cc3F)CNC2=O)c1Cl (configuration not stated)
O=C1NCC(Cc2ccccc2Cl)CN1c1c(Cl)cccc1Cl (configuration not stated)
CC(C)(C)NC(=O)CNc1cc(Cl)c(N2CC(Cc3ccc(F)cc3F)CCC2=O)c(Cl)c1 (configuration not stated)
O=C1CCC(Sc2ccc(Cl)cc2Cl)CN1c1c(Cl)ccnc1Cl (configuration not stated)
O=C1CCC(Oc2ccccc2)CN1c1c(Cl)ccnc1Cl (configuration not stated)
O=C1CCC(Cc2ccc(F)cc2F)CN1c1c(Cl)cc([N+](=O)[O-])cc1Cl (configuration not stated)
CN1CC(Cc2ccc(F)cc2F)CN(c2c(Cl)ccc(N)c2Cl)C1=O (configuration not stated)
CCOC(=O)CCNC(=O)c1cc(C)c(N2CC(Cc3ccc(F)cc3F)CCC2=O)c(C)c1 (configuration not stated)
O=C1SCC(Cc2ccc(F)cc2F)CN1c1c(Cl)ccc(O)c1Cl (configuration not stated)
CN1CC(Cc2ccccc2F)CN(c2c(Cl)cccc2Cl)C1=O (configuration not stated)

Source: the Kinase Knowledgebase extract (Sharma et al. 2016)
